We go through five compounds from patent publication US12617783B2, “Heterocyclic GLP-1R agonists” (BIOMEA FUSION, INC., priority 2024, dated 2026).

Read-outs that look alike come from different tables or passages of the source.

The target of this experiment is T1, human GLP-1R (Homo sapiens, UniProt P43220).
T1 construct: host or cells: HEK293
The experiment can be described thus: GLP-1R cAMP assay (Example B1a, HTRF, 30 min at room temperature). It counts as cell-based. The settings on record: for EC50: read-out: EC50. Summed up:
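Competitive HTRF read-out of cAMP after 30 min room-temperature stimulation, BETP absent, of human GLP-1R-HEK293 cells (1,000/well) in HEPES buffer with 500 μM IBMX and 0.1% BSA. Activation normalised to GLP-1(7-37) positive control. EC50 from 4-parameter non-linear regression.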
In general terms: Cyclic AMP is a second messenger, typically raised through Gs and lowered through Gi signalling.

The mark [1] stands for this setting: cAMP accumulation in HEK293 expressing human GLP-1R, no BETP, 30 min room temperature (Method B1a, compounds ID 1-609), Table 1.

T1 sequence (P43220 24-463): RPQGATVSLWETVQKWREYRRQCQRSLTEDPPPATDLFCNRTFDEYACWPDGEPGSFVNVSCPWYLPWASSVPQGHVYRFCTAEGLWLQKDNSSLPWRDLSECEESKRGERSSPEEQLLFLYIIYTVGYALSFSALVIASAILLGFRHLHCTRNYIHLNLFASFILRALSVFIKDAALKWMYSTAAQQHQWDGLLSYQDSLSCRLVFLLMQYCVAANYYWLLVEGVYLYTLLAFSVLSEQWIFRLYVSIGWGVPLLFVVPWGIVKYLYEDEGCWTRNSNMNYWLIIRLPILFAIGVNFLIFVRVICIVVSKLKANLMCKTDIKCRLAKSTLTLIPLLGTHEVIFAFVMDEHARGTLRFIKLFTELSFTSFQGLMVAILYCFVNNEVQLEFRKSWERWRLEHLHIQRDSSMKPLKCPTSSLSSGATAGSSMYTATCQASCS

What is called EC50 is the concentration at which the effect is half-maximal. For `Cc1cc(-n2nc3c(c2-n2ccn(-c4ccc5c(cnn5C)c4F)c2=O)[C@H]2CC[C@@H](C3)N2C(=O)c2cc3cc([C@H]4CCOC5(CC5)C4)ccc3n2[C@@]2(c3noc(=O)[nH]3)C[C@@H]2C)cc(C)c1F` [Compound 411, 3-((1S,2S)-1-(2-((4R,7S)-3-(3-(4-fluoro-1-methyl-1H-indazol-5-yl)-2-oxo-2,3-dihydro-1H-imidazol-1-yl)-2-(4-fluoro-3,5-dimethylphenyl)-2,4,5,6,7,8-hexahydro-4,7-epiminocyclohepta [c]pyrazole-9-carbonyl)-5-((S)-4-oxaspiro[2.5]octan-7-yl)-1H-indol-1-yl)-2-methylcyclopropyl)-1,2,4-oxadiazol-5 (4H)-one], the EC50 reads like this: (Table 1d, stereoisomer pairs) 0.652 µM; under setting [1], 0.652 µM. The potency entry (text to Table 1d, bridge atoms configured out of the plane or toward the reader) is given as “little or no potency”. For `Cc1cc(-n2nc3c(c2-n2ccn(-c4ccc(C(N)=O)c(F)c4)c2=O)[C@@H]2CC[C@H](C3)N2C(=O)c2cc3cc([C@H]4CCOC(C)(C)C4)ccc3n2[C@@]2(c3noc(=O)[nH]3)C[C@@H]2C)cc(C)c1F` [Compound 412, 4-[3-[(1S,8R)-11-[5-[(4S)-2,2-dimethyltetrahydropyran-4-yl]-1-[(1S,2S)-2-methyl-1-(5-oxo-4H-1,2,4-oxadiazol-3-yl)cyclopropyl]indole-2-carbonyl]-4-(4-fluoro-3,5-dimethyl-phenyl)-4,5,11-triazatricyclo[6.2.1.02,6]undeca-2,5-dien-3-yl]-2-oxo-imidazol-1-yl]-2-fluoro-benzamide], the EC50 under setting [1] stood at 0.551 µM. As for `Cc1cc(-n2nc3c(c2-n2ccn(-c4ccc5c(cnn5C)c4F)c2=O)[C@@H]2CC[C@H](C3)N2C(=O)c2cc3cc(C4CCOC4(C)C)ccc3n2[C@@]2(c3noc(=O)[nH]3)C[C@@H]2C)cc(C)c1F` (stereo partly drawn) [Compound 413, 3-[(1S,2S)-1-[5-(2,2-dimethyltetrahydrofuran-3-yl)-2-[(1S,8R)-4-(4-fluoro-3,5-dimethyl-phenyl)-3-[3-(4-fluoro-1-methyl-indazol-5-yl)-2-oxo-imidazol-1-yl]-4,5,11-triazatricyclo[6.2.1.02,6]undeca-2,5-diene-11-carbonyl]indol-1-yl]-2-methyl-cyclopropyl]-4H-1,2,4-oxadiazol-5-one], the EC50 under setting [1] worked out at 1.77 µM. Same read-out and setting: as for `Cc1cc(-n2nc3c(c2-n2ccn(-c4ccc5c(cnn5C)c4F)c2=O)[C@H]2CC[C@@H](C3)N2C(=O)c2cc3cc([C@@H]4CCOC5(CC5)C4)ccc3n2[C@@]2(c3noc(=O)[nH]3)C[C@@H]2C)cc(C)c1F` [Compound 414, 3-((1S,2S)-1-(2-((4R,7S)-3-(3-(4-fluoro-1-methyl-1H-indazol-5-yl)-2-oxo-2,3-dihydro-1H-imidazol-1-yl)-2-(4-fluoro-3,5-dimethylphenyl)-2,4,5,6,7,8-hexahydro-4,7-epiminocyclohepta [c]pyrazole-9-carbonyl)-5-((R)-4-oxaspiro[2.5]octan-7-yl)-1H-indol-1-yl)-2-methylcyclopropyl)-1,2,4-oxadiazol-5 (4H)-one], the figure is not below 10 µM; as for `Cc1cc(-n2nc3c(c2-n2ccn(-c4ccc5c(cnn5C)c4F)c2=O)[C@@H]2CC[C@H](C3)N2C(=O)c2cc3cc(C4CCOC5(CCC5)C4)ccc3n2[C@@]2(c3noc(=O)[nH]3)C[C@@H]2C)cc(C)c1F` (stereo partly drawn) [Compound 415, 3-((1S,2S)-1-(2-((4S,7R)-3-(3-(4-fluoro-1-methyl-1H-indazol-5-yl)-2-oxo-2,3-dihydro-1H-imidazol-1-yl)-2-(4-fluoro-3,5-dimethylphenyl)-2,4,5,6,7,8-hexahydro-4,7-epiminocyclohepta [c]pyrazole-9-carbonyl)-5-(5-oxaspiro[3.5]nonan-8-yl)-1H-indol-1-yl)-2-methylcyclopropyl)-1,2,4-oxadiazol-5 (4H)-one], 0.361 µM.
